Structures are written as SMILES.

Broadly, the IC50 is the concentration needed to halve the response being measured.

In the first experiment the target is T1, hmGluR1 receptor (Homo sapiens, UniProt Q13255).
T1 construct: expressed in transfected cells
T1 sequence (Q13255 19-1194): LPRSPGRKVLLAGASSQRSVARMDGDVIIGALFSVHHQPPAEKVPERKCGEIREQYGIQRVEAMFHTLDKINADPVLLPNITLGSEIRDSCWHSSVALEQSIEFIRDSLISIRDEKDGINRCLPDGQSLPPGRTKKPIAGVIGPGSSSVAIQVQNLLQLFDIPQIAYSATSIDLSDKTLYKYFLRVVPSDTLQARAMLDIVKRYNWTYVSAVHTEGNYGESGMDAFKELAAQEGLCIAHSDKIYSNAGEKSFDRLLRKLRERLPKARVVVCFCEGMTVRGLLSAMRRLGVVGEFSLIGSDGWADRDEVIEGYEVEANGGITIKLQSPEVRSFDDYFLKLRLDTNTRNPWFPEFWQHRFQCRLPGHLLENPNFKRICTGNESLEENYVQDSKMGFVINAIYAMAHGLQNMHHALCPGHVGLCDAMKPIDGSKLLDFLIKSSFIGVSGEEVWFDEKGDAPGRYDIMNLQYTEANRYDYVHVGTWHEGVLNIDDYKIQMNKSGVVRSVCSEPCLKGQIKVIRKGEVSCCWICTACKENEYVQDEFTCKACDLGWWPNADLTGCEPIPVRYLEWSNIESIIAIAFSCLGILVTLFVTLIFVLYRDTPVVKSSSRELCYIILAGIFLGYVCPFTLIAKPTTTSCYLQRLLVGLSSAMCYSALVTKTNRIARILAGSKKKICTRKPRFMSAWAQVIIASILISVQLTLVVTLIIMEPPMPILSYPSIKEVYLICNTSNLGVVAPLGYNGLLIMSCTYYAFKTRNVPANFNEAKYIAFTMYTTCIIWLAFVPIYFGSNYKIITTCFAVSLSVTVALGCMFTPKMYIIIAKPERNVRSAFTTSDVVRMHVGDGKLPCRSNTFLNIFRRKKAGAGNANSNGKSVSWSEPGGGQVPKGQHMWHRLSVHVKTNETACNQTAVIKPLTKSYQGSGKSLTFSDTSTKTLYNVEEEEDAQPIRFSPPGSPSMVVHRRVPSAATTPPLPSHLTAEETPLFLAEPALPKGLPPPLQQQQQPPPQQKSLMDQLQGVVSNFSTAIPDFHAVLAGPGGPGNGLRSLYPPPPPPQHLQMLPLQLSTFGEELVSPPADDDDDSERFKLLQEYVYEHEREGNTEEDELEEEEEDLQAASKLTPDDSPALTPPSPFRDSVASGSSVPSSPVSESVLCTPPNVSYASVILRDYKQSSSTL
Kind of experiment: IC50 determination: intracellular calcium mobilization (FLIPR) upon Quisqualate stimulation in CHO cells stably expressing hmGluR1. The class given is cell-based. The following applies: against Quisqualate 1 μM (EC80), FLIPR calcium mobilization, read-out: IC50 Class. In outline:
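CHO cells stably expressing hmGluR1 were kept overnight in DMEM high glucose with GPT and 1 mM pyruvate, then loaded 2 h with Calcium 3 dye.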
On the technique in general: Calcium assays in cells follow changes in intracellular calcium, usually with a dye or a luminescent sensor.
`COc1ccc(-n2cnc3c(sc4nccc(N(C)CCO)c43)c2=O)cc1` [28HJ]: the IC50 is less than 50 nM.

In the case of `NC(=O)CNc1ccnc2sc3c(=O)n(-c4ccc(F)cc4)cnc3c12` [28GG], the half-inhibitory concentration (IC50) lay in the range of 150 to 1000 nM.

With `Nc1ccnc2sc3c(=O)n(-c4ccc(Cl)cc4)cnc3c12` [28FK], the IC50 is less than 50 nM.

Consider `CC(O)CCNc1ccnc2sc3c(=O)n(-c4ccc(Cl)cc4)cnc3c12` (stereo not shown) [28HM], for which the concentration for half-maximal inhibition (IC50) was less than 50 nM.

Take `COCCNc1ncnc2sc3c(=O)n(-c4ccc(Cl)cc4)cnc3c12` [95DI]: the half-inhibitory concentration (IC50) was less than 50 nM.

On to `O=c1c2sc3nccc(NC4CC4)c3c2ncn1-c1ccc(Cl)cc1` [28HF], for which the concentration for half-maximal inhibition (IC50) was less than 50 nM.

With `CC(O)CCNc1ccnc2sc3c(=O)n(-c4ccc(F)cc4)cnc3c12` (stereo not shown) [28HN], the IC50 was less than 50 nM.

With `C=C(C)CNc1ccnc2sc3c(=O)n(-c4ccc(Cl)cc4)cnc3c12` [28FD], the IC50 was less than 50 nM.

With `O=c1c2sc3ncccc3c2ncn1-c1ccc(Cl)cc1` [183B], the IC50 was in the range of 150 to 1000 nM.

On to `CCN(C)c1ccnc2sc3c(=O)n(-c4ccc5c(c4)OCO5)cnc3c12` [28IE], for which the IC50 was less than 50 nM.

For the compound `CC(C)Nc1ccnc2sc3c(=O)n(-c4ccc(F)cc4)cnc3c12` [28GX], the 50% inhibitory concentration (IC50) fell in the range of 150 to 1000 nM.

As to `C=C(OCC)c1ccnc2sc3c(=O)n(-c4ccc(Cl)cc4)cnc3c12` [183A], the IC50 fell in the range of 150 to 1000 nM.

On to `COc1ccc(Nc2ncnc3sc4c(=O)n(-c5ccc(Cl)cc5)cnc4c23)cc1` [95GH], for which the IC50 is 50 to 150 nM.

Take `C#CCNc1ncnc2sc3c(=O)n(-c4ccc5c(c4)OCCO5)cnc3c12` [95EN]: the IC50 was 50 to 150 nM.

Regarding `C=CCNc1ncnc2sc3c(=O)n(-c4ccc(OC)c(F)c4)cnc3c12` [95BN], the IC50 was in the range of 50 to 150 nM.

`C=Cc1ccnc2sc3c(=O)n(-c4ccc(Cl)cc4)cnc3c12` [29E]: the IC50 is less than 50 nM.

Turning to `C=CCNc1ccnc2sc3c(=O)n(-c4ccc(OC)c(F)c4)cnc3c12` [28DT], the IC50 was less than 50 nM.

As for `COc1ccc(-n2cnc3c(sc4ncnc(NC5CC5)c43)c2=O)c(C)c1` [95AW], the IC50 is less than 50 nM.

Take `CSCCNc1ccnc2sc3c(=O)n(-c4ccc(C)cc4)cnc3c12` [28EV]: the IC50 was less than 50 nM.

As to `COc1cccc2sc3c(=O)n(-c4ccc(Cl)cc4)cnc3c12` [103S], the IC50 fell in the range of 150 to 1000 nM.

Take `Cc1ccc(-n2cnc3c(sc4nc(O)cc(N(C)C)c43)c2=O)cc1` [172A]: the IC50 was less than 50 nM.

For the compound `O=c1c2sc3nccc(Cl)c3c2ncn1-c1ccc(Cl)cc1` [57E], the half-inhibitory concentration (IC50) was 150 to 1000 nM.

For `O=c1c2sc3ncnc(NCC(F)(F)F)c3c2ncn1-c1ccc(Br)cc1` [95EE], the IC50 was less than 50 nM.

As to `Cc1ccc(-n2cnc3c(sc4nccc(N(C)NS(C)(=O)=O)c43)c2=O)cc1` [73J], the IC50 was in the range of 150 to 1000 nM.

Consider `Cc1noc2cc(F)c(-n3cnc4c(sc5nccc(N(C)C)c54)c3=O)cc12` [28EL], for which the IC50 is greater than 1000 nM.

As for `COc1ccc(-n2cnc3c(sc4ncnc(OC)c43)c2=O)cc1` [95GO], the IC50 is greater than 1000 nM.

On to `C#CCNc1ccnc2sc3c(=O)n(-c4ccc(OC)cc4)cnc3c12` [28DQ], for which the IC50 is less than 50 nM.

As to `O=c1c2sc3ncnc(NC4CCC4)c3c2ncn1-c1ccc(Cl)cc1` [95DD], the IC50 lay in the range of 150 to 1000 nM.

For `O=c1c2sc3nccc(NCCCCO)c3c2ncn1-c1ccc(F)cc1` [28GU], the IC50 was less than 50 nM.

As for `COc1ccccc1CCn1cnc2c(sc3nccc(N(C)C)c32)c1=O` [28EM], the IC50 was greater than 1000 nM.

Staying with this experiment, now noted: against Quisqualate 1 μM (EC80), class symbols, read-out: mGIuR 1 IC50.
Take `CN(C)c1ccnc2sc3c(=O)n(-c4ccc(Cl)cc4)cnc3c12` [P-2]: the IC50 is less than 50 nM.

As to `CN(C)c1ccnc2sc3c(=O)n(Cc4cccs4)cnc3c12` [15I], the IC50 lay within 150 to 1000 nM.

For the compound `CCN(C)c1ccnc2sc3c(=O)n(-c4ccc(C)cc4)c(C)nc3c12` [113I], the IC50 was less than 50 nM.

Turning to `COc1ccc(-n2cnc3c(sc4nccnc43)c2=O)cc1` [compound 40], the IC50 was greater than 1000 nM.

In the case of `CN(C)c1ccnc2sc3c(=O)n(-c4ccc(Cl)cc4I)cnc3c12` [7N], the IC50 lay within 150 to 1000 nM.

On to `CCCCc1nc2c(sc3nccc(N(C)C)c32)c(=O)n1-c1ccc(C)cc1` [116C], for which the IC50 was 150 to 1000 nM.

Turning to `CN(C)c1c(Br)cnc2sc3c(=O)n(C4CCCCC4)cnc3c12` [compound 43], the IC50 was in the range of 150 to 1000 nM.

Consider `CN(C)c1ccnc2sc3c(=O)n(-c4cccc5nonc45)cnc3c12` [7BR], for which the IC50 was 150 to 1000 nM.

Consider `COc1ccc(-n2cnc3c(sc4nc(C)cc(C)c43)c2=O)cc1` [P-15], for which the IC50 was 150 to 1000 nM.

Consider `CN(C)c1ccnc2sc3c(=O)n(-c4ccc5nc[nH]c5c4)cnc3c12` [7AW], for which the IC50 lay within 50 to 150 nM.

Consider `CCc1ccc(-n2cnc3c(sc4nccc(NC)c43)c2=O)cc1` [7CC], for which the IC50 is less than 50 nM.

As for `Cc1cc(N(C)C)c2c(n1)sc1c(=O)n(-c3ccc(F)cc3)cnc12` [7DC], the IC50 is less than 50 nM.

As to `Cc1ccc(F)c(-n2cnc3c(sc4nccc(N(C)C)c43)c2=O)c1` [7DZ], the IC50 was less than 50 nM.

`CC1CCC(n2cnc3c(sc4nccc(N(C)C)c43)c2=O)CC1` (stereo not shown) [15Z]: the IC50 is less than 50 nM.

Take `CN(C)c1cncc2sc3c(=O)n(N4CCCCC4)cnc3c12` [60L]: the 50% inhibitory concentration (IC50) lay within 150 to 1000 nM.

In the case of `Cc1ccc(-n2cnc3c(sc4nc(N5CCOCC5)cc(N(C)C)c43)c2=O)cc1` [59C], the half-maximal inhibitory concentration (IC50) was greater than 1000 nM.

With `Cc1cccc(-n2cnc3c(sc4nccc(N(C)C)c43)c2=O)n1` [7CX], the IC50 was in the range of 50 to 150 nM.

Consider `CN(C)c1ccnc2sc3c(=O)n(N(c4ccccc4)c4ccccc4)cnc3c12` [60J], for which the IC50 is greater than 1000 nM.

Take `CCCN(C)c1ccnc2sc3c(=O)n(C4CCCCC4)cnc3c12` [28AN]: the IC50 is less than 50 nM.

Consider `O=c1c2sc3nccc(OS(=O)(=O)C(F)(F)F)c3c2ncn1C1CCCCC1` [27A], for which the IC50 is greater than 1000 nM.

`C=CCn1cnc2c(sc3nccc(N(C)C)c32)c1=O` [7AB]: the IC50 lay in the range of 150 to 1000 nM.

Take `O=c1c2sc3nccc(NC4CCCCC4)c3c2ncn1C1CCCCC1` [28C]: the IC50 is greater than 1000 nM.

Regarding `O=C(Nc1ccnc2sc3c(=O)n(C4CCCCC4)cnc3c12)c1ccccc1` [73C], the IC50 was greater than 1000 nM.

For the compound `CN(C)c1c([N+](=O)[O-])cnc2sc3c(=O)n(C4CCCCC4)cnc3c12` [compound 51], the IC50 was less than 50 nM.

Consider `COc1ccc(-n2cnc3c(sc4nccc(NCC5CC5)c43)c2=O)cc1` [28AX], for which the IC50 is 150 to 1000 nM.

In the case of `COc1cc(-n2cnc3c(sc4nccc(N(C)C)c43)c2=O)c(OC)cc1Cl` [7V], the IC50 was greater than 1000 nM.

Turning to `CNc1ccnc2sc3c(=O)n(-c4ccc5c(c4)OCO5)cnc3c12` [7CB], the 50% inhibitory concentration (IC50) was less than 50 nM.

In the case of `CN(C)c1cccc2sc3c(=O)n(-c4ccccc4)cnc3c12` [103C], the IC50 lay in the range of 150 to 1000 nM.

Turning to `O=c1c2sc3nccc(NC4CCCCC4)c3c2ncn1-c1ccc(OC(F)(F)F)cc1` [28F], the IC50 is greater than 1000 nM.

Regarding `CCCCNc1ccnc2sc3c(=O)n(C4CCCCC4)cnc3c12` [28R], the IC50 was in the range of 150 to 1000 nM.

Turning to `CN(C)c1cccc2sc3c(=O)n(-c4ccc(Cl)cc4)cnc3c12` [103A], the IC50 was in the range of 50 to 150 nM.

`CN(C)c1ccnc2sc3c(=O)n(-c4ccc5[nH]nnc5c4)cnc3c12` [7AO]: the IC50 is 150 to 1000 nM.

`CN(C)c1c(C(N)=O)cnc2sc3c(=O)n(C4CCCCC4)cnc3c12` [compound 49]: the IC50 is greater than 1000 nM.

For the compound `O=c1c2sc3nccc(N4CC[C@H](O)C4)c3c2ncn1C1CCCCC1` [28N], the IC50 is greater than 1000 nM.
